Experimental data: patent US11918551B2, “Methods of treating seizure disorders and Prader-Willi syndrome” (Ovid Therapeutics, Inc., priority 2017, dated 2024)

Experiment: plasma pharmacokinetics (elimination half-life, dose proportionality of Cmax and AUC)
Conditions: in the dose range 5 mg-500 mg
Description: “PK” refers to the pharmacokinetic profile. Cmax is defined as the highest plasma drug concentration estimated during an experiment (ng/ml). Tmax is defined as the time when Cmax is estimated (min). AUC0-∞ is the total area under the plasma drug concentration-time curve, from drug administration until the drug is eliminated (ng·hr/ml or μg·hr/ml). The area under the curve is governed by clearance. Clearance is defined as the volume of blood or plasma that is totally cleared of its content of drug per unit time (ml/min).

AUCs dose proportionality: greater than proportional increase
SMILES: N[C@H]1C[C@@H](C(=O)O)CC1=C(F)F
